Test results taken from patent publication US20250034186A1, “ANTIVIRAL COMPOUNDS” (priority 2020, published 2025).

Assays:
RSV strain A2 = assay: RSV HEp-2 EC50, infectious cytopathic cell protection assay; type: cell-based; settings: for EC50: human respiratory syncytial virus, 96 h, RSV A2 in HEp-2 cells, 4 days, Cell TiterGlo
Method: Antiviral activity against RSV is determined using an infectious cytopathic cell protection assay in HEp-2 cells. In this assay, compounds inhibiting viral infection and/or replication produce a cytoprotective effect against the virus-induced cell killing that can be quantified using a cell viability reagent. The techniques used here are novel adaptations of methods described in published literature (Chapman et al., Antimicrob Agents Chemother. 2007, 51(9):3346-53.).
HEp-2 cells are obtained from ATCC (Manassas, VI) and maintained in MEM media supplemented with 10% fetal bovine serum and penicillin/streptomycin. Cells are passaged twice a week and kept at subconfluent stage. Commercial stock of RSV strain A2 (Advanced Biotechnologies, Columbia, MD) is titered before compound testing to determine the appropriate dilution of the virus stock that generates desirable cytopathic effect in HEp-2 cells.
For antiviral tests, HEp-2 cells are grown in large cell culture flasks to near confluency but not fully so. The compounds to be tested are prediluted in DMSO in 384-well compound dilution plates, either in an 8 or 40 sample per plate standardized dose response format. 3-fold serial dilution increments of each test compound are prepared in the plates and test samples are transferred via acoustic transfer apparatus (Echo, Labcyte) at 100 nL per well into cell culture assay 384-well plates. Each compound dilution is transferred in single or quadruplicate samples into dry assay plates, which are stored until assay is ready to go. The positive and negative controls are laid out in opposite on ends of the plate in vertical blocks (1 column).
Subsequently, an infectious mixture is prepared using an appropriate dilution of virus stock previously determined by titration with cells at a density of 50,000/mL and 20 μL/well is added to test plates w/compounds via automation (uFlow, Biotek). Each plate includes negative and positive controls (16 replicates each) to create 0% and 100% virus inhibition standards, respectively. Following the infection with RSV, testing plates are incubated for 4 days in a 37° C. cell culture incubator. After the incubation, a cell viability reagent, Cell TiterGlo (Promega, Madison, WI) is added to the assay plates, which are incubated briefly, and a luminescent readout is measured (Envision, Perkin Elmer) in all the assay plates. The RSV-induced cytopathic effect, percentage inhibition, is determined from the levels of remaining cell viability. […] Various potent anti-RSV tool compounds are used as positive controls for antiviral activity.

MRC5 cytotoxicity assay = type: cell-based; settings: human, MRC5 cells
Method: Compounds were tested in a high-throughput 384-well assay format for cytotoxicity in MRC5 cells (human fetal lung fibroblast cell line). Cells were diluted in media (MEM (10-010-CM), 10% FBS, 1% PSG) to 16.6K cells/mL and plated at 90 uL/well into 384 well poly-D-lysine coated assay plates and placed in an incubator at 37° C. and 5% CO2. Compounds were serially diluted (1:3) in 100% DMSO in 384-well plates in quadruplicate. DMSO and 2 mM Puromycin were included as negative and positive controls respectively. 24 hours after cell plating, a 384 channel pipettor was used to transfer 0.4 uL from the compound plate to the assay plate. Assay plates were returned to the incubator. After 5 days, assay plates were washed with 80 uL/well of PBS before addition of 20 μL of Cell Titer Glo. Assay plates were read on the Envision plate reader. […] CC50 values were calculated in Accord (on-line tool) using a one-site dose-response model to generate sigmoidal curve fits.

[1] = Stability assay in human hepatic S9 fractions; type: in vitro ADME; settings: 37° C., NADPH and UDPGA, read-out: Hum HepS9 t1/2
Method: For S9 stability, the compounds were incubated at 2 μM in cynomolgus monkey or human hepatic S9 fractions for up to 90 min at 37° C. in the presence of NADPH and UDPGA (Phase I and Phase II cofactor, Sigma-Aldrich). At desired time points following compound addition, samples were quenched with 9 volumes of an aqueous solution containing internal standard, 50% acetonitrile and 25% methanol. Sample plates were centrifuged at 3000 g for 30 min, and 10 μL of the resulting solution was analyzed by LC-MS/MS. Data (analyte to internal standard peak area ratio) were plotted on a semi log scale and fitted using an exponential fit. The half-life (T1/2) was determined assuming first order kinetics.

NHBE cytotoxicity assay = type: cell-based; settings: human, normal bronchial epithelial (NHBE) cells
Method: Normal human bronchial epithelial (NHBE) cells were purchased from Lonza (Walkersville, MD, Cat #CC-2540) and cultured in Bronchial Epithelial Growth Media (BEGM) (Lonza, Walkersville, MD, Cat #CC-3170). The cells were passaged 1-2 times per week to maintain <80% confluency per manufacturer's protocol. The NHBE cells were discarded after 5 passages in culture.
Following attachment, 3-fold serially diluted compound was added using a Hewlett-Packard D300 Digital Dispenser (Hewlett Packard, Palo Alto, CA) in triplicate. The final concentration of DMSO was normalized to 1.0%. Following compound addition, NHBE or SAEC cells were incubated at 37° C. for 5 days. The NHBE or SAEC cells were then allowed to equilibrate to 25° C. and cell viability was determined by removing 100 μL of culture medium and adding 100 μL of Cell-Titer Glo viability reagent (Promega, Madison, WI). The mixtures were incubated for 10 minutes at 25° C., and the luminescence signal was quantified on an Envision luminescence plate reader (PerkinElmer, Waltham, MA). Percent viability values were determined by normalization to 1.0% DMSO-only control wells with background luminescent signal subtracted out.

For `CCC(CC)COC(=O)[C@H](C)N[P@](=O)(OC[C@@]1(C#N)O[C@@H](c2ccc3c(N)ncnn23)[C@H](O)[C@@H]1O)Oc1ccccc1` [Compound 6, 2-ethylbutyl ((S)-(((2R,3S,4R,5S)-5-(4-aminopyrrolo[2,1-f][1,2,4]triazin-7-yl)-2-cyano-3,4-dihydroxytetrahydrofuran-2-yl)methoxy)(phenoxy)phosphoryl)alaninate], the “times more potent than compound 7, RSV HEp-2” value (RSV strain A2; EC50 ratio vs compound 7) was 4.8 times, the EC50 (RSV strain A2) was 0.026 µM and the CC50 at 5 days (MRC5 cytotoxicity assay) was over 88.4 µM. It also gave a half-life at 2 μM [1] of 7 min and a CC50 at 5 days (NHBE cytotoxicity assay) of 24.4 µM.

`CCOC(=O)[C@H](C)NP(=O)(OC[C@@]1(C#N)O[C@@H](c2ccc3c(N)ncnn23)[C@H](O)[C@@H]1O)Oc1ccccc1` (stereo partly shown) [Compound 1, reference compound] showed an EC50 (RSV strain A2) of 0.352 µM, a CC50 at 5 days (MRC5 cytotoxicity assay) of over 44.4 µM and a half-life at 2 μM [1] of 12 min. The CC50 at 5 days (NHBE cytotoxicity assay) was over 50 µM.

`CCC(CC)COC(=O)[C@H](C)NP(=O)(OC[C@@]1(C#N)O[C@@H](c2ccc3c(N)ncnn23)[C@H](O)[C@@H]1O)Oc1ccccc1` (stereo partly shown) [Compound 2, reference compound] gave an EC50 (RSV strain A2) of 0.069 µM, a CC50 at 5 days (MRC5 cytotoxicity assay) of over 44.4 µM and a half-life at 2 μM [1] of 12 min. It also gave a CC50 at 5 days (NHBE cytotoxicity assay) of 29.1 µM.

In the case of `C[C@H](N[P@](=O)(OC[C@@]1(C#N)O[C@@H](c2ccc3c(N)ncnn23)[C@H](O)[C@@H]1O)Oc1ccccc1)C(=O)OC1CCCCC1` [Formula I, cyclohexyl ((S)-(((2R,3S,4R,5S)-5-(4-aminopyrrolo[2,1-f][1,2,4]triazin-7-yl)-2-cyano-3,4-dihydroxytetrahydrofuran-2-yl)methoxy)(phenoxy)phosphoryl)-L-alaninate], the “times more potent than the compound of Formula Ib, RSV HEp-2” value (RSV strain A2; EC50 ratio vs Formula Ib) is reported as 31.1 times, the “more potent relative to compound 1, RSV Hep-2” value (RSV strain A2; EC50 ratio vs compound 1) is reported as “about 4.0” and the “times more potent relative to compound 3, RSV Hep-2” value (RSV strain A2; EC50 ratio vs compound 3) is reported as “about 5 times”. The “times more potent relative to compound 4, RSV Hep-2” value (RSV strain A2; EC50 ratio vs compound 4) was “about 3.9 times”, the “times more potent relative to compound 5, RSV Hep-2” value (RSV strain A2; EC50 ratio vs compound 5) was “about 19.8 times” and the EC50 (RSV strain A2) was 0.088 µM. The CC50 at 5 days (MRC5 cytotoxicity assay) was over 44.4 µM, the half-life at 2 μM [1] was 31 min and the CC50 at 5 days (NHBE cytotoxicity assay) was over 40.1 µM.
